Bounds are passed on as bounds.

T1 sequence (P28223 whole entry): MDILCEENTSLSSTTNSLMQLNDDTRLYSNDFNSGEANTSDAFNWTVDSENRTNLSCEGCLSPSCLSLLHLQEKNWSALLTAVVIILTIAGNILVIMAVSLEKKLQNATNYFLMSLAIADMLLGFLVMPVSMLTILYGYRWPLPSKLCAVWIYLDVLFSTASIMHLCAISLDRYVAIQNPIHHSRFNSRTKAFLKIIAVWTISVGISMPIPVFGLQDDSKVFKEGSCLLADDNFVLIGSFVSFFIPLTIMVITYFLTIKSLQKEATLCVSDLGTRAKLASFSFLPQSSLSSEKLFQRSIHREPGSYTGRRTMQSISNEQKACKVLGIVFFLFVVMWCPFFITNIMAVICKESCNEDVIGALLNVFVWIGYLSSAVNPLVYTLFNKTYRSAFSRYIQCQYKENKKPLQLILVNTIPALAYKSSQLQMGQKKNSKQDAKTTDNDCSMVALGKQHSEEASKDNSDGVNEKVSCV

The first assay addresses T1, 5HT2A receptor (Homo sapiens, UniProt P28223). The experiment in a line: cell-based. More on the design: expressed in transfected cells; host or cells: HEK293T cells, transient co-transfection. The conditions noted are these: HEK-293T, BRET1 beta-arrestin2 recruitment, HEK293T cells, normalized to 5-HT; read-out: 5HT2A β-Arr Emax (%).
In the case of `COc1ccc2[nH]nc(C3=CCCNC3)c2c1` [Example 87, 5-methoxy-3-(1,2,5,6-tetrahydropyridin-3-yl)-1H-indazole], the Emax stood at 80%.

A further assay concerns the target T1, 5HT2A receptor. The experiment in a line: cell-based. More on the design: expressed in transfected cells; host or cells: HEK293T cells, transient co-transfection. The settings on record: HEK-293T, BRET2 Gαq dissociation, HEK293T cells, normalized to 5-HT; read-out: 5HT2A Gq Emax (%).
For `COc1ccc2[nH]nc(C3=CCCNC3)c2c1` [Example 87, 5-methoxy-3-(1,2,5,6-tetrahydropyridin-3-yl)-1H-indazole], the Emax was found to be 84.2%.

The next assay has as its target T1, 5HT2A receptor. The assay is described as follows: biochemical. The conditions noted are these: 5HT2A Ki (nM), secondary binding assay, Cheng-Prusoff. The format is binding. More on the design: expressed in transfected cells; crude membranes.
Regarding `CCCN1CCC=C(c2n[nH]c3c(C#N)cccc23)C1` [Example 176, 3-(1-propyl-1,2,5,6-tetrahydropyridin-3-yl)-1H-indazole-7-carbonitrile], the inhibition constant Ki is > 10000 nM.

As for `Fc1cccc2c(C34CNCCC3C4(F)F)n[nH]c12` (stereo not drawn) [Example 190, 3-(7,7-difluoro-3-azabicyclo[4.1.0]heptan-1-yl)-7-fluoro-1H-indazole], the affinity corresponds to a Ki of 5370 nM. This counts as single-digit micromolar.

Molecule `CN1CCN(c2n[nH]c3c(C#N)cccc23)CC1` [Example 233, 3-(4-methylpiperazin-1-yl)-1H-indazole-7-carbonitrile] displayed a Ki of 4830 nM.

For `CN1CC=C(c2n[nH]c3c(Cl)cccc23)CC1` [Example 239, 7-chloro-3-(1-methyl-1,2,3,6-tetrahydropyridin-4-yl)-1H-indazole], the Ki was 603 nM.

In the case of `N#Cc1cccc2c(C34CNCC3C4(F)F)n[nH]c12` (stereo not drawn) [Example 202, 3-(6,6-difluoro-3-azabicyclo[3.1.0]hexan-1-yl)-1H-indazole-7-carbonitrile], the inhibitory constant (Ki) was > 10000 nM.

The molecule `Cc1cccc2c(C3=CN4CCC3CC4)c[nH]c12` [Example 252, 3-(7-methyl-1H-indol-3-yl)-1-azabicyclo[2.2.2]oct-2-ene] returned a Ki of 6020 nM.

`CN1CCC2CC2(c2n[nH]c3c(Cl)cccc23)C1` (stereo not drawn) [Example 197, 7-chloro-3-(3-methyl-3-azabicyclo[4.1.0]heptan-1-yl)-1H-indazole] showed a Ki of 1200 nM. This Ki is about 5-fold lower than that of the molecule before.

With `CCCN1CCOC(c2c[nH]c3c(Cl)cccc23)C1` (stereo not drawn) [Example 247, 2-(7-chloro-1H-indol-3-yl)-4-propylmorpholine], the affinity, expressed as Ki, was 2560 nM. This Ki lies about 2.1-fold higher than the previous one.

Consider `Clc1cccc2c(-c3cn[nH]c3)n[nH]c12` [Example 218, 7-chloro-3-(1H-pyrazol-4-yl)-1H-indazole], for which the inhibition constant Ki is 1720 nM.

Take `CN1CC2C=C(c3n[nH]c4c(Cl)cccc34)C1CC2` (stereo not drawn) [Example 224, 6-(7-chloro-1H-indazol-3-yl)-2-methyl-2-azabicyclo[2.2.2]oct-5-ene]: the Ki was 8880 nM.

In the case of `Cc1cccc2c(C3=CCNCCC3)n[nH]c12` [Example 204, 7-methyl-3-(2,5,6,7-tetrahydro-1H-azepin-4-yl)-1H-indazole], the inhibition constant Ki is 158 nM.

For `Clc1cccc2c(-c3cnc[nH]3)n[nH]c12` [Example 217, 7-chloro-3-(1H-imidazol-5-yl)-1H-indazole], the Ki was > 10000 nM.

`N#Cc1cccc2c(C34CNCCC3C4(F)F)n[nH]c12` (stereo not drawn) [Example 192, 3-(7,7-difluoro-3-azabicyclo[4.1.0]heptan-1-yl)-1H-indazole-7-carbonitrile]: the Ki was > 10000 nM.

As to `CCCNC1CCC=C(c2n[nH]c3c(Cl)cccc23)C1` (stereo not drawn) [Example 171, 3-(7-chloro-1H-indazol-3-yl)-N-propylcyclohex-3-en-1-amine], the inhibition constant Ki was > 10000 nM.

As for `CC(C)N1CCOC(c2c[nH]c3c(Cl)cccc23)C1` (stereo not drawn) [Example 248, 2-(7-chloro-1H-indol-3-yl)-4-isopropylmorpholine], affinity was put at a Ki of 5890 nM.

`CN1CCC(c2n[nH]c3c(Cl)cccc23)C1` (stereo not drawn) [Example 222, 7-chloro-3-(1-methylpyrrolidin-3-yl)-1H-indazole] displayed a Ki of 6980 nM.

`Cc1cccc2c(N3CCN(C)CC3)n[nH]c12` [Example 234, 7-methyl-3-(4-methylpiperazin-1-yl)-1H-indazole] yielded a Ki of 259 nM.

Turning to `CCCN1CC=C(c2n[nH]c3c(Cl)cccc23)CC1` [Example 242, 7-chloro-3-(1-propyl-1,2,3,6-tetrahydropyridin-4-yl)-1H-indazole], the affinity, expressed as Ki, was 330 nM.

In turn, `Clc1cccc2c(C3=CCCN(C4CCC4)C3)n[nH]c12` [Example 174, 7-chloro-3-(1-cyclobutyl-1,2,5,6-tetrahydropyridin-3-yl)-1H-indazole] returned a Ki of 9760 nM.

`NC1CCC=C(c2n[nH]c3c(Cl)cccc23)C1` (stereo not drawn) [Example 169, 3-(7-chloro-1H-indazol-3-yl)cyclohex-3-en-1-amine]: the Ki is > 10000 nM.

For `Cc1cccc2c(C34CNCCC3C4)n[nH]c12` (stereo not drawn) [Example 193, 3-(3-azabicyclo[4.1.0]heptan-1-yl)-7-methyl-1H-indazole], the inhibition constant (Ki) is > 10000 nM.

The molecule `Clc1cc(Cl)c2[nH]cc(C3CNC3)c2c1` [Example 266, 3-(azetidin-3-yl)-5,7-dichloro-1H-indole] came in with an inhibition constant Ki of 244 nM.

`N#Cc1cccc2c(N3CCNCC3)n[nH]c12` [Example 231, 3-(piperazin-1-yl)-1H-indazole-7-carbonitrile]: affinity was put at a Ki of 3010 nM.

Molecule `CCCc1cccc2c(C3=CCCNC3)n[nH]c12` [Example 236] returned a Ki of 294 nM. This Ki is about 10-fold lower than that of the molecule before.

The assay is the same for the next values; noted with them: 5HT2A Ki (nM), secondary radioligand binding, Ki from IC50 by Cheng-Prusoff.
In turn, `C1=C(c2c[nH]c3cc(-c4ccccc4)ccc23)CNCC1` [Example 39, 6-phenyl-3-(1,2,5,6-tetrahydropyridin-3-yl)-1H-indole] had a Ki of 6760 nM.

`CN1CCC=C(c2c[nH]c3cc(C(C)(C)C)ccc23)C1` [Example 38, 6-(tert-butyl)-3-(1-methyl-1,2,5,6-tetrahydropyridin-3-yl)-1H-indole] came in with an inhibition constant (Ki) of 7880 nM. The Ki values of the last two molecules are within 1.5-fold of each other.

Molecule `Cc1cnc2[nH]cc(C3=CCCN(C)C3)c2c1` [Example 5, 5-methyl-3-(1-methyl-1,2,5,6-tetrahydropyridin-3-yl)-1H-pyrrolo[2,3-b]pyridine] had a Ki of 717 nM.

Take `COc1ccc2c(C3=CCCN(C)C3)c[nH]c2c1` [Example 36, 6-methoxy-3-(1-methyl-1,2,5,6-tetrahydropyridin-3-yl)-1H-indole]: the Ki was found to be 8500 nM.

The molecule `CC(C)(C)c1cccc2c(C3=CCCN(Cc4ccccc4)C3)c[nH]c12` [Example 72, 3-(1-benzyl-1,2,5,6-tetrahydropyridin-3-yl)-7-tert-butyl-1H-indole] gave a Ki of 734 nM.

`Cc1ccc2c(C3=CCCNC3)c[nH]c2c1` [Example 29, 6-methyl-3-(1,2,5,6-tetrahydropyridin-3-yl)-1H-indole] registered a Ki of 1200 nM.

Consider `Fc1cccn2c(C3=CCCNC3)cnc12` [Example 111, 8-fluoro-3-(1,2,5,6-tetrahydropyridin-3-yl)imidazo[1,2-a]pyridine], for which the Ki was > 10000 nM.

`O=C(O)c1cccc2c(C3=CCCN(Cc4ccccc4)C3)c[nH]c12` [Example 74, 3-(1-benzyl-1,2,5,6-tetrahydropyridin-3-yl)-1H-indole-7-carboxylic acid]: the Ki was > 10000 nM.

Regarding `COc1cccc2c(C3=CCCNC3)n[nH]c12` [Example 92, 7-methoxy-3-(1,2,5,6-tetrahydropyridin-3-yl)-1H-indazole], the Ki stood at 1090 nM.

`CC(C)c1ccc2c(C3=CCCN(C)C3)c[nH]c2c1` [Example 34, 6-isopropyl-3-(1-methyl-1,2,5,6-tetrahydropyridin-3-yl)-1H-indole] gave an inhibition constant (Ki) of 486 nM.

`Cc1ccc2c(C3=CCCN(C)C3)c[nH]c2c1` [Example 30, 6-methyl-3-(1-methyl-1,2,5,6-tetrahydropyridin-3-yl)-1H-indole]: the Ki was found to be 647 nM.

The molecule `C1=C(c2c[nH]c3nccc(-c4ccccc4)c23)CNCC1` [Example 12, 4-phenyl-3-(1,2,5,6-tetrahydropyridin-3-yl)-1H-pyrrolo[2,3-b]pyridine] registered an inhibitory constant (Ki) of 191 nM.

With `Cc1cccn2c(C3=CCCNC3)cnc12` [Example 112, 8-methyl-3-(1,2,5,6-tetrahydropyridin-3-yl)imidazo[1,2-a]pyridine], affinity was put at a Ki of 9040 nM.

The molecule `CN1CCC=C(c2cn(C)c3ncccc23)C1` [Example 48, 1-methyl-3-(1-methyl-1,2,5,6-tetrahydropyridin-3-yl)-1H-pyrrolo[2,3-b]pyridine] registered a Ki of 423 nM. Compared with the last molecule, the Ki is about 21-fold lower.

`Cc1cnc2[nH]cc(C3=CCCNC3)c2c1` [Example 1, 5-methyl-3-(1,2,5,6-tetrahydropyridin-3-yl)-1H-pyrrolo[2,3-b]pyridine] showed an inhibitory constant (Ki) of 1720 nM.

The molecule `CC(C)c1cccc2c(C3=CCCN(C)C3)c[nH]c12` [Example 54, 7-isopropyl-3-(1-methyl-1,2,5,6-tetrahydropyridin-3-yl)-1H-indole] returned an inhibition constant Ki of 510 nM.

`CN1CCC=C(c2c[nH]c3cc(-c4ccccc4)ccc23)C1` [Example 40, 3-(1-methyl-1,2,5,6-tetrahydropyridin-3-yl)-6-phenyl-1H-indole] gave a Ki of 1330 nM.

In turn, `CC(C)c1ccc2c(C3=CCCNC3)c[nH]c2c1` [Example 33, 6-isopropyl-3-(1,2,5,6-tetrahydropyridin-3-yl)-1H-indole] registered an inhibitory constant (Ki) of 1260 nM.

In the case of `C1=C(c2c[nH]c3ccc(-c4ccccc4)cc23)CNCC1` [Example 27, 5-phenyl-3-(1,2,5,6-tetrahydropyridin-3-yl)-1H-indole], the affinity corresponds to a Ki of 1480 nM.

The molecule `Cc1ccc2c(C3=CCCN(C)C3)n[nH]c2c1` [Example 93, 6-methyl-3-(1-methyl-1,2,5,6-tetrahydropyridin-3-yl)-1H-indazole] displayed a Ki of 2920 nM.

Regarding `CN1CCC=C(c2c[nH]c3c(C(C)(C)C)cccc23)C1` [Example 55, 7-(tert-butyl)-3-(1-methyl-1,2,5,6-tetrahydropyridin-3-yl)-1H-indole], the inhibition constant Ki amounted to 374 nM.

For the molecule `CC(C)c1ccc2[nH]cc(C3=CCCN(C)C3)c2c1` [Example 24, 5-isopropyl-3-(1-methyl-1,2,5,6-tetrahydropyridin-3-yl)-1H-indole], the Ki was 105 nM.
